Consider five compounds from ChEMBL document CHEMBL1130575, “ATP analogs with non-transferable groups in the position as inhibitors of glycerol kinase” (Bioorg Med Chem Lett, 1997).

Data set [1] can be described thus: pKa value was evaluated. Format: physicochemical.
For a further data set, the target named is T1, Glycerol kinase (Homo sapiens, UniProt P32189).
T1 sequence (P32189 whole entry): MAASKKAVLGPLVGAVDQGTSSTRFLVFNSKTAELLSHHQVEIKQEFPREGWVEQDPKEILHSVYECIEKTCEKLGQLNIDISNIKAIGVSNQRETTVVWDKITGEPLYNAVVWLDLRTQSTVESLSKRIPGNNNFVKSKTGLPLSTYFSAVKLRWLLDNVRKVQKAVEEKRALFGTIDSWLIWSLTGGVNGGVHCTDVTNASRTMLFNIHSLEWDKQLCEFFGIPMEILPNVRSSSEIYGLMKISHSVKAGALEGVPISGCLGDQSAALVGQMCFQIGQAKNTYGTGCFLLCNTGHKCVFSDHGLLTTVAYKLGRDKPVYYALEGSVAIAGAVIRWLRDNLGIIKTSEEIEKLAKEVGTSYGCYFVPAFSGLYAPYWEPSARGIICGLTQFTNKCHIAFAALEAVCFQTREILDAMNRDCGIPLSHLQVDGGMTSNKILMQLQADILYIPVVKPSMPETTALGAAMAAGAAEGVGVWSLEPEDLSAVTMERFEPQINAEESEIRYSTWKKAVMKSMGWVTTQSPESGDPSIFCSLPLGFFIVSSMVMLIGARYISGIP
The data set can be described thus: Tested for its binding affinity against glycerol kinase (ATP competitive inhibition).

`Nc1ncnc2c1ncn2[C@@H]1O[C@H](COP(=O)(O)OP(=O)(O)C(F)(F)P(=O)(O)O)[C@@H](O)[C@H]1O`: the pKa in data set [1] is 6.7. In addition, the Ki on Glycerol kinase was determined as 80 µM.

Consider `Nc1ncnc2c1ncn2[C@@H]1O[C@H](COP(=O)(O)OP(=O)(O)NP(=O)(O)O)[C@@H](O)[C@H]1O`, for which, at Glycerol kinase, the Ki came out at 900 µM.

In the case of `Nc1ncnc2c1ncn2C1O[C@H](COP(=O)(O)OP(=O)(O)C[As](=O)(O)O)[C@@H](O)[C@H]1O` (some centres undefined), the pKa in data set [1] turned out to be 9. The affinity at Glycerol kinase corresponds to a Ki of 2900 µM.

Compound `Nc1ncnc2c1ncn2[C@@H]1O[C@H](COP(=O)(O)OP(=O)(O)OP(=O)(O)O)[C@@H](O)[C@H]1O` [ADENOSINE TRIPHOSPHATE] yielded a pKa in data set [1] of 7.1. This compound also gave a Ki at Glycerol kinase of 200 µM.

`Nc1ncnc2c1ncn2[C@@H]1O[C@H](COP(=O)(O)OP(=O)(O)CP(=O)(O)O)[C@@H](O)[C@H]1O` [PHOSPHOMETHYLPHOSPHONIC ACID ADENYLATE ESTER] showed a pKa in data set [1] of 8.4. Also, the Ki at Glycerol kinase is 300 µM.

As usually defined, the pKa is the negative logarithm of the acid dissociation constant. Usually Ki stands for the equilibrium dissociation constant of an inhibitor or competing ligand from its target.
